Test results published in the NIST ThermoML archive (doi:10.1016/j.jct.2013.10.016).
± gives the expanded uncertainty stated by the source.

Assay: wn = mass fraction of the nth substance listed
Conditions: Wilhelmy plate method

| SMILES | surface tension liquid-gas (293.2 K, w1 = 0.2) [mN/m] | surface tension liquid-gas (293.2 K, w1 = 0.25) [mN/m] | surface tension liquid-gas (293.2 K, w1 = 0.3) [mN/m] | surface tension liquid-gas (303.2 K, w1 = 0.2) [mN/m] | surface tension liquid-gas (303.2 K, w1 = 0.25) [mN/m] | surface tension liquid-gas (303.2 K, w1 = 0.3) [mN/m] | surface tension liquid-gas (313.2 K, w1 = 0.2) [mN/m] | surface tension liquid-gas (313.2 K, w1 = 0.25) [mN/m] | surface tension liquid-gas (313.2 K, w1 = 0.3) [mN/m] | surface tension liquid-gas (323.2 K, w1 = 0.2) [mN/m] | surface tension liquid-gas (323.2 K, w1 = 0.25) [mN/m] | surface tension liquid-gas (323.2 K, w1 = 0.3) [mN/m] |
| --- | --- | --- | --- | --- | --- | --- | --- | --- | --- | --- | --- | --- |
| OCCNCCO [diethanolamine] + O | 65.1 ± 2 | 64.6 ± 2 | 62.8 ± 2 | 64.4 ± 2 | 62.7 ± 2 | 61.3 ± 2 | 63.9 ± 2 | 61.8 ± 2 | 60.4 ± 2 | 61.8 ± 2 | 59.6 ± 2 | 58.2 ± 2 |
| NCCO [2-aminoethan-1-ol] + O | 62.6 ± 2 | 61.2 ± 2 | 60.3 ± 2 | 61.8 ± 2 | 60.6 ± 2 | 59.5 ± 2 | 60.2 ± 2 | 59.2 ± 2 | 58 ± 2 | 58.7 ± 2 | 57.7 ± 2 | 56.5 ± 2 |
